# Measured values published in paper PMC2923275 (Biochemical pharmacology, 2010).
# Legend:
# [1] = system: wild type (RH) strain of T. gondii; assay: Anti-toxoplasmic activity in tissue culture; format: cell-based, Toxoplasma gondii; details: wild type (RH) in human fibroblasts
# [2] = system: uninfected human foreskin fibroblasts; assay: Host toxicity, MTT assay on uninfected host cells; details: infection: None
# [3] = system: adenosine kinase deficient (TgAK^-3) strain of T. gondii; assay: Anti-toxoplasmic activity in tissue culture; format: cell-based, Toxoplasma gondii; details: TgAK^-3 in human fibroblasts
SMILES,percent survival of parasite ([1]; 5 μM compound) [%],percent survival of parasite ([1]; 10 μM compound) [%],percent survival of parasite ([1]; 25 μM compound) [%],percent survival of parasite ([1]; 50 μM compound) [%],host-toxicity (survival of uninfected host cells) ([2]; 5 μM compound) [%],host-toxicity (survival of uninfected host cells) ([2]; 10 μM compound) [%],host-toxicity (survival of uninfected host cells) ([2]; 25 μM compound) [%],host-toxicity (survival of uninfected host cells) ([2]; 50 μM compound) [%],percent survival of parasite ([3]; 5 μM compound) [%],percent survival of parasite ([3]; 10 μM compound) [%],percent survival of parasite ([3]; 25 μM compound) [%],percent survival of parasite ([3]; 50 μM compound) [%]
"OCC1CC(n2cnc3c(SCc4ccccc4F)ncnc32)C(O)C1O (stereo not shown) [Compound 2, Carbocyclic 6-(o-fluorobenzylthio)inosine]",98.6,93.7,39.2,12.7,100,100,100,85.8,100,100,100,100
"OCC1CC(n2cnc3c(SCc4ccccc4Cl)ncnc32)C(O)C1O (stereo not shown) [Compound 3, Carbocyclic 6-(o-chlorobenzylthio)inosine]",79.5,48.8,9.8,2.2,100,100,100,100,100,100,100,100
"Cc1ccccc1CSc1ncnc2c1ncn2C1CC(CO)C(O)C1O (stereo not shown) [Compound 4, Carbocyclic 6-(o-methylbenzylthio)inosine]",82.7,45.4,7.6,0.0,100,100,100,99.2,100,100,100,100
"Cc1cccc(CSc2ncnc3c2ncn3C2CC(CO)C(O)C2O)c1 (stereo not shown) [Compound 5, Carbocyclic 6-(m-methylbenzylthio)inosine]",88.3,64.7,13.7,1.2,100,100,100,96.1,100,100,100,100
"OCC1CC(n2cnc3c(SCc4cccc(C(F)(F)F)c4)ncnc32)C(O)C1O (stereo not shown) [Compound 6, Carbocyclic 6-(m-trifluoromethylbenzylthio)inosine]",79.0,47.1,6.3,1.0,100,100,100,90.6,100,100,100,100
"O=[N+]([O-])c1cccc(CSc2ncnc3c2ncn3C2CC(CO)C(O)C2O)c1 (stereo not shown) [Compound 7, Carbocyclic 6-(m-nitrobenzylthio)inosine]",84.4,50.9,4.2,0.0,100,100,100,100,100,100,100,100
"OCC1CC(n2cnc3c(SCc4ccc(Cl)cc4)ncnc32)C(O)C1O (stereo not shown) [Compound 9, Carbocyclic 6-(p-chlorobenzylthio)inosine]",72.9,11.9,0.0,0.0,100,100,100,100,100,100,100,100
"OCC1CC(n2cnc3c(SCc4ccc(Br)cc4)ncnc32)C(O)C1O (stereo not shown) [Compound 10, Carbocyclic 6-(p-bromobenzylthio)inosine]",77.1,47.3,1.2,1.0,100,100,100,100,100,100,100,100
"O=[N+]([O-])c1ccc(CSc2ncnc3c2ncn3C2CC(CO)C(O)C2O)cc1 (stereo not shown) [Compound 12, Carbocyclic 6-(p-nitrobenzylthio)inosine]",100,97.6,44.2,16.8,100,100,100,100,100,100,100,100
"N#Cc1ccc(CSc2ncnc3c2ncn3C2CC(CO)C(O)C2O)cc1 (stereo not shown) [Compound 13, Carbocyclic 6-(p-cyanobenzylthio)inosine]",100,100,48.8,17.8,100,100,100,100,100,100,100,100
"COC(=O)c1ccc(CSc2ncnc3c2ncn3C2CC(CO)C(O)C2O)cc1 (stereo not shown) [Compound 14, Carbocyclic 6-(p-methoxycarbonylbenzylthio)inosine]",53.9,6.3,1.5,0.0,100,99.4,88.7,87.1,100,100,100,100
"COc1ccc(CSc2ncnc3c2ncn3C2CC(CO)C(O)C2O)cc1 (stereo not shown) [Compound 15, Carbocyclic 6-(p-methoxybenzylthio)inosine]",48.3,1.9,0.0,0.0,100,100,94.3,82.1,98.4,100,100,100
"OCC1CC(n2cnc3c(SCc4ccc(OC(F)(F)F)cc4)ncnc32)C(O)C1O (stereo not shown) [Compound 16, Carbocyclic 6-(p-trifluoromethoxybenzylthio)inosine]",87.3,53.6,8.1,0.0,100,98.2,96.7,89.3,100,100,100,100
"Nc1ccc(S(=O)(=O)Nc2ncccn2)cc1 [Compound 23, Sulfadiazine, reference compound]",92.9,58.0,53.4,46.3,98.2,99.8,99.8,102,–,–,–,–
"CCc1nc(N)nc(N)c1-c1ccc(Cl)cc1 [Compound 24, Pyrimethamine, reference compound]",98.9,55.3,25.1,23.2,101,100,108,108,–,–,–,–
